Assay results taken from US20250221410A1, “SUBSTITUTED 2-C-AZINES AND SALTS THEREOF, AND USE THEREOF AS HERBICIDAL ACTIVE SUBSTANCES” (BAYER AKTIENGESELLSCHAFT, priority 2022, published 2025).

Assays:
Format in all cases: in vivo
[1] = tested on: VERPE: Veronica persica; test: Pre-emergence herbicide efficacy at 80 g/ha, VERPE; conditions: scored visually after about 3 weeks
From the text: (§1) Seeds of monocotyledonous and dicotyledonous weed plants and crop plants were placed in plastic or organic planting pots and covered with soil. The compounds of the invention, formulated in the form of wettable powders (WP) or as emulsion concentrates (EC), were then applied to the surface of the covering soil as aqueous suspension or emulsion with addition of 0.5% additive at a water application rate equivalent to 600 l/ha. After the treatment, the pots were placed in a greenhouse and kept under good growth conditions for the test plants. After about 3 weeks, the efficacy of the preparations was scored visually in comparison with untreated controls as percentages. For example, 100% activity=the plants have died, 0% activity=like control plants. Tables D1 to D12 below show the effects of selected compounds of the general formula (I) according to Table 1 on various harmful plants and an application rate corresponding to 80 g/ha, which were obtained by the experimental procedure mentioned above.

[2] = tested on: POLCO; test: Pre-emergence herbicide efficacy at 80 g/ha, POLCO; conditions: Polygonum convolvulus, scored visually after about 3 weeks
From the text: as §1

[3] = tested on: AMARE: Amaranthus retroflexus; test: Pre-emergence herbicide efficacy at 80 g/ha, AMARE; conditions: scored visually after about 3 weeks
From the text: as §1

[4] = tested on: ABUTH: Abutilon theophrasti; test: Pre-emergence herbicide efficacy at 80 g/ha, ABUTH; conditions: scored visually after about 3 weeks
From the text: as §1

[5] = tested on: AMARE: Amaranthus retroflexus; test: Post-emergence herbicidal efficacy at 80 g/ha, AMARE; conditions: visual rating about 3 weeks after treatment vs untreated controls
Summary of the method: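 Pot-grown weeds in sandy loam were sprayed at one-leaf stage (2–3 weeks post-sowing) with WP or EC formulations plus 0.5% additive at 600 l/ha water. About 3 weeks later in the greenhouse, activity was rated visually against untreated controls, 0% = like control, 100% = dead.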

[6] = tested on: SETVI: Setaria viridis; test: Post-emergence herbicidal efficacy at 1280 g/ha, SETVI; conditions: visual rating about 3 weeks after treatment vs untreated controls
Summary of the method: (§2)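 Read-out is visual percent activity relative to untreated controls (100% = plants died, 0% = no effect), scored about 3 weeks after treatment. Application was post-emergence at the one-leaf stage in the greenhouse, as WP or EC in water with 0.5% additive at 600 L/ha.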

[7] = tested on: AMARE: Amaranthus retroflexus; test: Pre-emergence herbicide efficacy at 1280 g/ha, AMARE; conditions: visual scoring after about 3 weeks vs untreated controls
Summary of the method: (§3)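 Pre-emergence pot test in sandy loam: WP or EC formulations sprayed onto covering soil after sowing, as aqueous suspension/emulsion with 0.5% additive at 600 L/ha water. Plants grown in greenhouse; after about 3 weeks, efficacy scored visually as % versus untreated controls (100% = dead, 0% = like control).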

[8] = tested on: SETVI: Setaria viridis; test: Pre-emergence herbicide efficacy at 1280 g/ha, SETVI; conditions: visual scoring vs untreated controls
Summary of the method: as §3

[9] = tested on: ABUTH: Abutilon theophrasti; test: Pre-emergence herbicide efficacy at 1280 g/ha, ABUTH; conditions: visual scoring after about 3 weeks vs untreated controls
Summary of the method: as §3

[10] = tested on: STEME: Stellaria media; test: Pre-emergence herbicide efficacy at 1280 g/ha, STEME; conditions: visual scoring vs untreated controls
Summary of the method: as §3

[11] = tested on: AMARE: Amaranthus retroflexus; test: Post-emergence herbicidal efficacy at 1280 g/ha, AMARE; conditions: rated visually after about 3 weeks vs untreated controls, 100% = plants have died, 0% = like control plants
Summary of the method: as §2

[12] = tested on: DIGSA: Digitaria sanguinalis; test: Post-emergence herbicidal efficacy at 1280 g/ha, DIGSA; conditions: rated visually after about 3 weeks vs untreated controls, 100% = plants have died, 0% = like control plants
Summary of the method: as §2

[13] = tested on: KCHSC: Kochia scoparia; test: Pre-emergence herbicide efficacy at 1280 g/ha, KCHSC; conditions: visual scoring after about 3 weeks vs untreated controls
Summary of the method: as §3

[14] = tested on: LOLRI: Lolium rigidum; test: Pre-emergence herbicide efficacy at 1280 g/ha, LOLRI; conditions: visual scoring after about 3 weeks vs untreated controls
From the text: (§4) Seeds of mono- and dicotyledonous weed plants were placed in plastic pots in sandy loam soil (doubly sown with one species each of mono- or dicotyledonous weed plants per pot) and covered with soil. The compounds of the invention, formulated in the form of wettable powders (WP) or as emulsion concentrates (EC), were then applied to the surface of the covering soil as aqueous suspension or emulsion with addition of 0.5% additive at a water application rate of 600 litres per hectare (converted). After the treatment, the pots were placed in a greenhouse and kept under good growth conditions for the test plants. After about 3 weeks, the efficacy of the preparations was scored visually in comparison with untreated controls as percentages. For example, 100% activity=the plants have died, 0% activity=like control plants. Tables C1 to C12 below show the effects of selected compounds of the general formula (I) according to Table 1 on various harmful plants and at an application rate corresponding to 1280 g/ha, which were obtained by the trial procedure specified above.

[15] = tested on: POAAN: Poa annua; test: Post-emergence herbicidal efficacy at 1280 g/ha, POAAN; conditions: visual rating about 3 weeks after treatment vs untreated controls
Summary of the method: as §2

[16] = tested on: ECHCG: Echinochloa crus-galli; test: Pre-emergence herbicide efficacy at 1280 g/ha, ECHCG; conditions: visual scoring after about 3 weeks vs untreated controls
Summary of the method: as §3

[17] = tested on: STEME: Stellaria media; test: Post-emergence herbicidal efficacy at 1280 g/ha, STEME; conditions: visual rating about 3 weeks after treatment vs untreated controls
Summary of the method: as §2

[18] = tested on: ABUTH: Abutilon theophrasti; test: Post-emergence herbicidal efficacy at 1280 g/ha, ABUTH; conditions: rated visually after about 3 weeks vs untreated controls, 100% = plants have died, 0% = like control plants
Summary of the method: as §2

[19] = tested on: VERPE: Veronica persica; test: Post-emergence herbicidal efficacy at 1280 g/ha, VERPE; conditions: visual rating about 3 weeks after treatment vs untreated controls
Summary of the method: as §2

[20] = tested on: KCHSC: Kochia scoparia; test: Post-emergence herbicidal efficacy at 1280 g/ha, KCHSC; conditions: visual rating about 3 weeks after treatment vs untreated controls
Summary of the method: as §2

[21] = tested on: VERPE: Veronica persica; test: Pre-emergence herbicide efficacy at 1280 g/ha, VERPE; conditions: visual scoring vs untreated controls
Summary of the method: as §3

[22] = tested on: DIGSA: Digitaria sanguinalis; test: Pre-emergence herbicide efficacy at 1280 g/ha, DIGSA; conditions: visual scoring after about 3 weeks vs untreated controls
Summary of the method: as §3

[23] = tested on: POAAN: Poa annua; test: Pre-emergence herbicide efficacy at 1280 g/ha, POAAN; conditions: visual scoring after about 3 weeks vs untreated controls
Summary of the method: as §3

[24] = tested on: MATIN: Matricaria inodora; test: Pre-emergence herbicide efficacy at 1280 g/ha, MATIN; conditions: visual scoring after about 3 weeks vs untreated controls
From the text: as §4

| SMILES | Pre-emergence efficacy against AMARE in % [3] [%] | Pre-emergence efficacy against ABUTH in % [4] [%] | Post-emergence efficacy against AMARE [5] [%] | Pre-emergence efficacy against AMARE [7] [%] | Pre-emergence efficacy against SETVI in % [8] [%] | Pre-emergence efficacy against ABUTH [9] [%] | Pre-emergence efficacy against STEME in % [10] [%] | Post-emergence efficacy at 1280 g/ha against AMARE in % [11] [%] | Pre-emergence efficacy against KCHSC [13] [%] | Pre-emergence efficacy against ECHCG [16] [%] | Post-emergence efficacy against VERPE [19] [%] | Post-emergence efficacy against KCHSC [20] [%] | Pre-emergence efficacy against VERPE in % [21] [%] | Pre-emergence efficacy against DIGSA [22] [%] | Pre-emergence efficacy against POAAN [23] [%] | Pre-emergence efficacy against MATIN [24] [%] | other results |
| --- | --- | --- | --- | --- | --- | --- | --- | --- | --- | --- | --- | --- | --- | --- | --- | --- | --- |
| Fc1cnc(Cc2ccccc2-c2cc(C(F)F)no2)nc1 [Example 1-135] | 100 | 95 | 100 | – | – | – | – | – | – | – | – | – | – | – | – | – | Pre-emergence efficacy against VERPE in % [1]: 95%; Pre-emergence efficacy against POLCO in % [2]: 90% |
| N#Cc1cccc(Cc2ncc(Cl)cn2)c1-n1cc(C(F)(F)F)cn1 [Example 1-45] | 100 | – | – | 100 | 100 | 100 | 100 | 100 | 100 | 100 | 100 | 100 | 100 | 100 | 90 | 90 | Post-emergence efficacy against SETVI [6]: 90%; Post-emergence efficacy at 1280 g/ha against DIGSA in % [12]: 90%; Pre-emergence efficacy against LOLRI [14]: 90%; Post-emergence efficacy against POAAN [15]: 90%; Post-emergence efficacy against STEME [17]: 90%; Post-emergence efficacy at 1280 g/ha against ABUTH in % [18]: 90% |
| Fc1cnc(Oc2cccc(F)c2Cc2ncc(Cl)cn2)nc1 [Example 1-52] | 100 | 90 | 80 | 100 | 100 | 90 | 100 | 100 | 100 | 90 | 90 | 90 | 90 | 100 | 100 | 100 | – |
